Patent US20060216330A1, “Peptides having an ace inhibiting effect” (priority 2003, published 2006)
Where two headings read alike, the source gives them in different places. Ends that are not written are not given here. Peptide text beside a SMILES is read from it.

Assays:
[1] = In vitro gastro-intestinal digestion of Biozate (artificial human gastro intestinal tract)
Method: The stability of peptides in the human gastro-intestinal tract was studied by subjecting Biozate™ to typical conditions in the stomach and small intestine. Gastric conditions were mimicked by dissolving 5.0 g Biozate™, 2.1 g NaCl, 0.1 g NaH2PO4, 0.45 g lipase and 2.9 g pepsin in 900 mL of Millipore Q water. The fluid was adjusted to pH 3.5 with HCl, stirred with a peddle (50 rpm) and kept at 37° C. for 60 min. Subsequently, intestinal conditions were mimicked by adding 9.0 g pancreatin to the simulated gastric fluid and adjusting the pH to 6.8 with NaHCO3. The simulated intestinal fluid was incubated at 37° C. and continuous stirring (50 rpm) for 120 min. Samples were collected at different time points during the in vitro gastro-intestinal digestion. After collection, samples were directly heated at 95° C. for 30 min and subsequently stored at −20° C.
At certain times samples were taken from the GIT model system.

ACE = ACE (Homo sapiens, UniProt P12821); test: ACE activity measurement with fluorogenic substrate Abz-FRK(Dnp)P-OH
Method: ACE activity with the fluorogenic substrate Abz-FRK(Dnp)P—OH was monitored in 0.1 M Tris buffer pH 7.0, containing 100 mM NaCl. […] The ACE activity was continuously followed in a Fluostar (BMG) fluorometer with 2 dispensers by measuring the fluorescence at λex: 320 nm and λem: 420 nm.

[2] = test system: spontaneously hypertensive rats; details: Abubakar et al., 1998; cited from earlier work

Chain of ACE (P12821 30-1306, species assumed): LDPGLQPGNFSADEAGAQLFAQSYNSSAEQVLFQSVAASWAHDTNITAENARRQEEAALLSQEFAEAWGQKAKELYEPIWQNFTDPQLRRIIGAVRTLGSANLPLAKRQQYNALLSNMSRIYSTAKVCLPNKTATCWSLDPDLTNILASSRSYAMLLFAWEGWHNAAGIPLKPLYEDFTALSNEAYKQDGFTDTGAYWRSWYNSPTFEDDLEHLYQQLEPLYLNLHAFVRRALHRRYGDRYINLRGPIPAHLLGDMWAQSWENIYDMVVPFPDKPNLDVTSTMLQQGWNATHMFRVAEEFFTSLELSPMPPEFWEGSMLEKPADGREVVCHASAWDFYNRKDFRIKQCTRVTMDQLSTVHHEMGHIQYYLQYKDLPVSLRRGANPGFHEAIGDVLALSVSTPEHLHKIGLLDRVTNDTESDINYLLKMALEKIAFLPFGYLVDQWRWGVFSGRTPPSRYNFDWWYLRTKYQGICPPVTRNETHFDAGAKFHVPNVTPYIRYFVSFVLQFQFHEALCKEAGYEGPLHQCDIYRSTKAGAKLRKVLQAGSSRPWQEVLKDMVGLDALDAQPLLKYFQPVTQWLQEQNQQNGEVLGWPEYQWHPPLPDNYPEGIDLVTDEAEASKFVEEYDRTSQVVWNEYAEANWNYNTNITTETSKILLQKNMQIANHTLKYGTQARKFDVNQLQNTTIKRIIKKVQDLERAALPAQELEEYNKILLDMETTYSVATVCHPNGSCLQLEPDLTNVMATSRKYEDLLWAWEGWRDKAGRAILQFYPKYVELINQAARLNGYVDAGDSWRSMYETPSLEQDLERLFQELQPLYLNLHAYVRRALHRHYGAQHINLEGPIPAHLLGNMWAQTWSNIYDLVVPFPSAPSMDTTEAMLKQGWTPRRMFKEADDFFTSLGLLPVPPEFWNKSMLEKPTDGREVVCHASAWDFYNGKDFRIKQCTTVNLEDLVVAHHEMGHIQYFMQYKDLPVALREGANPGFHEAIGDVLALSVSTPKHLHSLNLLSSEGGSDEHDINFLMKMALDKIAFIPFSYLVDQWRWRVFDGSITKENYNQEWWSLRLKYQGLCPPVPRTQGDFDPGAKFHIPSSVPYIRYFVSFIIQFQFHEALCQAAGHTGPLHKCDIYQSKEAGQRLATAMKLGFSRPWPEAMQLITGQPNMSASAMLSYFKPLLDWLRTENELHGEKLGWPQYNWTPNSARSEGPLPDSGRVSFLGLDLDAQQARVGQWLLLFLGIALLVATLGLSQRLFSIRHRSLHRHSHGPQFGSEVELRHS

Concentration, Original solution ([1]; Biozate original solution before digestion) [ng/mL]	Concentration, t = 0 min ([1]; t = 0 min, simulated gastric fluid pH 3.5, 37° C.) [ng/mL]	Concentration, t = 60 min ([1]; t = 60 min, end of gastric phase) [ng/mL]	Concentration, t = 65 min ([1]; t = 65 min, simulated intestinal fluid (pancreatin, pH 6.8)) [ng/mL]	Concentration, t = 75 min ([1]; t = 75 min, simulated intestinal fluid) [ng/mL]	Concentration, t = 90 min ([1]; t = 90 min, simulated intestinal fluid) [ng/mL]	Concentration, t = 120 min ([1]; t = 120 min, simulated intestinal fluid) [ng/mL]	Concentration, t = 150 min ([1]; t = 150 min, simulated intestinal fluid) [ng/mL]	Concentration, t = 180 min ([1]; t = 180 min, simulated intestinal fluid) [ng/mL]	IC50 (ACE) [µM]	Concentration, t = 0 min (pH 3.5) [ng/mL]	Concentration, t = 65 min (pH 6.8) [ng/mL]	Compound	antihypertensive activity [2]
0	0	0	9000	9000	9000	9000	14000	17000	50			CC[C@H](C)[C@H](N)C(=O)N1CCC[C@H]1C(=O)N[C@@H](C)C(=O)O [IPA] (H-Ile-Pro-Ala-OH; N-terminus and C-terminus assumed)	has antihypertensive activity
									120	26000	3000	IPAVFK [IPAVFK]	
